Where two headings read alike, the source gives them in different places.
What was measured:
[1] = Antiinflammatory activity, carrageenin-induced oedema test; type: in vivo, rats
Experimental: This effect was evaluated by means of an experimental model reproducing acute inflammation in rats: for this purpose the carrageenin-induced oedema test was employed following the method described by C. A. Winter (J. Pharmac. Exp. […] Wong, J. F. Gardocki and T. P. Pruss, J. Pharmac. Exp. Ther. 185 (1): 127, 1973). Table I lists the tested compounds, the concentration thereof, routes of administration and relative percentage oedema inhibitions; the data are commented upon at the end of the Tables.

[2] = Analgesic activity, phenylquinone-induced writhing test; type: in vivo
Experimental: The inhibiting effect on the abdominal contractions induced by phenyl-p-quinone was calculated by the following formula: [formula]
Table II lists the doses, routes of administration and their efficacy expressed as percentage of protection.

[3] = test system: healthy animals; test: General observation of toxic effects in animals at the doses used
Source text: (§1) The composition that had been administered via the oral and/or parenteral route, was in suspension of 0.5% carboxymethylcellulose in neutral pH physiological saline solution.

[4] = in vivo; details: rat
[5] = Solubility; type: physicochemical
[6] = Mucolytic activity in vitro, consistency of human expectoration
Experimental: The experiment was carried out "in vitro" according to the method of R. S. Hirsch (Bull. […] Table IV lists the percentage decrease of the expectoration consistency provoked by the compound of this invention in comparison with dithiothreitol and acetylcysteine which are known mucolytic agents.

[7] = Antitussive activity (method of Y. Kase); type: in vivo, albino male Guinea-pigs
Experimental: The antitussive effect on albino male Guinea-pigs weighing 300 g was evaluated using the method described by Y. Kase (Selected Pharmacological Testing Methods, p. 363, Marcel Dekker Inc., New York, 1968).

[8] = Antipyretic activity, yeast-induced hyperthermia; type: in vivo, albino male Wistar rats
Source text: as §1

[9] = type: in vivo, male Wistar rats; details: for % incidence / 10 / gastric damage index / mean No. of lesions / mean severity: four days; for mean severity: scale 0 (no lesion) to 5 (perforations)
Experimental: Male Wistar rats weighing 180 g were randomized into groups of 10. Three doses of each compound were administered. One group received the vehicle alone (10 ml/kg b.w.). Each dose was given orally for four days consecutively and the rats were sacrificed on the fifth day for necropsy. The ulcerogenic effect was evaluated by the following scale:
(1) each haemorrhagic point at least 1 mm in diameter was scored as 1 lesion,
(2) haemorrhagic points less than 1 mm in diameter were scored in the following manner:
(c) 20 to 29=three lesions
(2) gastric mucosal irritation without haemorrhage: 1
(3) haemorrhagic points less than 1 mm in diameter: 2
(4) haemorrhagic points between 1 and 3 mm in diameter: 3
(5) haemorrhagic points larger than 3 mm in diameter: 4
By means of this scale it was possible to obtain the gastric damage index: [formula]

[10] = in vivo; details: mouse

COc1ccccc1OC(=O)Cc1ccc(C(=O)c2ccc(C)cc2)n1C [1-methyl-5-p-toluoylpyrrole-2-acetic acid guaiacyl ester]
Oedema % inhibition ([1]; 25 mg/kg i.p., 2 h): 33.5% | Oedema % inhibition ([1]; 25 mg/kg i.p., 4 h): 30.0% | Oedema % inhibition ([1]; 25 mg/kg i.p., 6 h): 25.0% | Oedema % inhibition ([1]; 25 mg/kg i.p., 24 h): 7.0% | Oedema % inhibition ([1]; 25 mg/kg per os, 2 h): 27.0% | Oedema % inhibition ([1]; 25 mg/kg per os, 4 h): 29.0% | Oedema % inhibition ([1]; 25 mg/kg per os, 6 h): 28.0% | Oedema % inhibition ([1]; 25 mg/kg per os, 24 h): 3.2% | Oedema % inhibition ([1]; 50 mg/kg i.p., 2 h): 55.0% | Oedema % inhibition ([1]; 50 mg/kg i.p., 4 h): 51.6% | Oedema % inhibition ([1]; 50 mg/kg i.p., 6 h): 49.0% | Oedema % inhibition ([1]; 50 mg/kg i.p., 24 h): 9.2% | Oedema % inhibition ([1]; 50 mg/kg per os, 2 h): 49.0% | Oedema % inhibition ([1]; 50 mg/kg per os, 4 h): 53.0% | Oedema % inhibition ([1]; 50 mg/kg per os, 6 h): 51.0% | Oedema % inhibition ([1]; 50 mg/kg per os, 24 h): 5.3% | Oedema % inhibition ([1]; 100 mg/kg i.p., 2 h): 80.0% | Oedema % inhibition ([1]; 100 mg/kg i.p., 4 h): 78.0% | Oedema % inhibition ([1]; 100 mg/kg i.p., 6 h): 70.0% | Oedema % inhibition ([1]; 100 mg/kg i.p., 24 h): 9.5% | Oedema % inhibition ([1]; 100 mg/kg per os, 2 h): 71.6% | Oedema % inhibition ([1]; 100 mg/kg per os, 4 h): 77.8% | Oedema % inhibition ([1]; 100 mg/kg per os, 6 h): 77.0% | Oedema % inhibition ([1]; 100 mg/kg per os, 24 h): 7.2% | action against acute inflammation in words ([1]; oral and/or parenteral): inhibiting action against acute inflammation | % protection ([2]; 5 mg/kg i.p.): 30.0% | % protection ([2]; 5 mg/kg per os): 30.0% | % protection ([2]; 10 mg/kg i.p.): 62.5% | % protection ([2]; 10 mg/kg per os): 58.6% | % protection ([2]; 20 mg/kg i.p.): 78.0% | % protection ([2]; 20 mg/kg per os): 79.4% | analgesic action in words ([2]; oral and/or parenteral): marked analgesic action | death ([3]; healthy animals, doses and routes used in the experiments, long- or short-term treatments): did not provoke death | apparent signs of toxic effects ([3]; in vivo): nor apparent signs of toxic effects | significant toxic effects ([3]; in vivo): did not provoke significant toxic effects | therapeutical index ([3]; in vivo): high therapeutical index | LD50 ([4]; ip): 1180 mg/kg | LD50 ([4]; po): > 1500 mg/kg | Solubility [5]: soluble in the usual organic solvents | % decrease of expectoration consistency ([6]; 1.0 M (9%), 12 experiments): 52% | mucolytic activity in words ([6]; described as in vivo tests): good mucolytic and antitussive activity | % inhibition, amplitude of coughs ([7]; 50 mg/kg i.p.): 18% | % inhibition, frequency of coughs ([7]; 50 mg/kg i.p.): 26% | % inhibition, amplitude of coughs ([7]; 50 mg/kg per os): 16% | % inhibition, frequency of coughs ([7]; 50 mg/kg per os): 22% | % inhibition, amplitude of coughs ([7]; 75 mg/kg i.p.): 25% | % inhibition, frequency of coughs ([7]; 75 mg/kg i.p.): 50% | % inhibition, amplitude of coughs ([7]; 75 mg/kg per os): 19% | % inhibition, frequency of coughs ([7]; 75 mg/kg per os): 45% | % inhibition, amplitude of coughs ([7]; 100 mg/kg i.p.): 40% | % inhibition, frequency of coughs ([7]; 100 mg/kg i.p.): 55% | % inhibition, amplitude of coughs ([7]; 100 mg/kg per os): 38% | % inhibition, frequency of coughs ([7]; 100 mg/kg per os): 56% | antitussive activity in words ([7]; in vivo tests): good mucolytic and antitussive activity | % temperature decrease ([8]; 50 mg/kg i.p., 1 h): 18.0% | % temperature decrease ([8]; 50 mg/kg i.p., 2 h): 26.0% | % temperature decrease ([8]; 50 mg/kg i.p., 3 h): 39.0% | % temperature decrease ([8]; 50 mg/kg per os, 1 h): 16.0% | % temperature decrease ([8]; 50 mg/kg per os, 2 h): 20.0% | % temperature decrease ([8]; 50 mg/kg per os, 3 h): 33.0% | % temperature decrease ([8]; 75 mg/kg i.p., 1 h): 30.0% | % temperature decrease ([8]; 75 mg/kg i.p., 2 h): 35.0% | % temperature decrease ([8]; 75 mg/kg i.p., 3 h): 56.0% | % temperature decrease ([8]; 75 mg/kg per os, 1 h): 18.0% | % temperature decrease ([8]; 75 mg/kg per os, 2 h): 27.0% | % temperature decrease ([8]; 75 mg/kg per os, 3 h): 49.0% | % temperature decrease ([8]; 100 mg/kg i.p., 1 h): 42.0% | % temperature decrease ([8]; 100 mg/kg i.p., 2 h): 49.0% | % temperature decrease ([8]; 100 mg/kg i.p., 3 h): 58.0% | % temperature decrease ([8]; 100 mg/kg per os, 1 h): 29.0% | % temperature decrease ([8]; 100 mg/kg per os, 2 h): 35.0% | % temperature decrease ([8]; 100 mg/kg per os, 3 h): 50.0% | antithermic activity in words ([8]; oral and/or parenteral): considerable antithermic activity | % incidence / 10 ([9]; 50 mg/kg orally): 7 | gastric damage index ([9]; 50 mg/kg orally): 9 | mean No. of lesions ([9]; 50 mg/kg orally): 1 | mean severity ([9]; 50 mg/kg orally): 1 | % incidence / 10 ([9]; 100 mg/kg orally): 8 | gastric damage index ([9]; 100 mg/kg orally): 11 | mean No. of lesions ([9]; 100 mg/kg orally): 1 | mean severity ([9]; 100 mg/kg orally): 2 | % incidence / 10 ([9]; 200 mg/kg orally): 8 | gastric damage index ([9]; 200 mg/kg orally): 12 | mean No. of lesions ([9]; 200 mg/kg orally): 2 | mean severity ([9]; 200 mg/kg orally): 2 | ulcerogenic effect in words ([9]; number of gastric lesions and their severity (Table VI)): moderate | gastrointestinal tolerability ([9]; rat, in vivo): perfectly tolerated by the gastrointestinal tract | LD50 ([10]; ip): 1200 mg/kg | LD50 ([10]; po): > 1500 mg/kg
